In PubChem BioAssay AID1259407 (Chemical Carcinogenesis Research Information System (CCRIS), 2018):
Active and inactive are the calls of the source. No rule for the calls is given here.

System: CCRIS mutagenicity, Ames/micronucleus/aberration tests
Experiment: CCRIS mutagenicity studies
[1] = Test System: AMES SALMONELLA TYPHIMURIUM, Strain/Indicator: TA98, Metabolic Activation: NONE, Method: STANDARD PLATE
[2] = Test System: AMES SALMONELLA TYPHIMURIUM, Strain/Indicator: TA100, Metabolic Activation: NONE, Method: STANDARD PLATE
[3] = Test System: AMES SALMONELLA TYPHIMURIUM, Strain/Indicator: TA100, Metabolic Activation: S-9, Method: STANDARD PLATE
[4] = Test System: AMES SALMONELLA TYPHIMURIUM, Strain/Indicator: TA98, Metabolic Activation: RAT, LIVER, S-9, AROCLOR 1254, Method: STANDARD PLATE
[5] = Test System: AMES SALMONELLA TYPHIMURIUM, Strain/Indicator: TA1535, Metabolic Activation: HAMSTER, LIVER, S-9, AROCLOR 1254, Method: STANDARD PLATE
[6] = Test System: AMES SALMONELLA TYPHIMURIUM, Strain/Indicator: TA1535, Metabolic Activation: NONE, Method: STANDARD PLATE
[7] = Test System: AMES SALMONELLA TYPHIMURIUM, Strain/Indicator: TA1537, Metabolic Activation: NONE, Method: STANDARD PLATE
[8] = Test System: AMES SALMONELLA TYPHIMURIUM, Strain/Indicator: TA1538, Metabolic Activation: NONE, Method: STANDARD PLATE

SMILES: CN(C(=O)c1csc([N+](=O)[O-])c1)c1ccccc1
- mutagenic call [1]: active; positive
- mutagenic call [2]: active; positive

SMILES: N#Cc1cccc(/C=C/c2ccc(N)cc2)c1
- mutagenic call (Test System: AMES SALMONELLA TYPHIMURIUM, Strain/Indicator: TA98(1,8-DNP6), Metabolic Activation: NONE, Method: STANDARD PLATE): inactive; negative
- mutagenic call (Test System: AMES SALMONELLA TYPHIMURIUM, Strain/Indicator: TA98(1,8-DNP6), Metabolic Activation: S-9, Method: STANDARD PLATE): active; positive
- mutagenic call [1]: active; positive
- mutagenic call (Test System: AMES SALMONELLA TYPHIMURIUM, Strain/Indicator: TA98, Metabolic Activation: S-9, Method: STANDARD PLATE): active; positive
- mutagenic call [2]: inactive; negative
- mutagenic call [3]: active; positive

SMILES: C[As](O)O
- mutagenic call (End Point: In vitro micronucleus, Test System: Human peripheral lymphocytes, Metabolic Activation: None): active; positive in all subjects only at highest dose
- mutagenic call (Test System: Mouse lymphoma, Strain/Indicator: L5178Y (TK+/TK-), Metabolic Activation: None, Method: Microwell): active; positive

SMILES: CCOCOCC
- mutagenic call (Test System: AMES SALMONELLA TYPHIMURIUM, Strain/Indicator: TA98, Metabolic Activation: HAMSTER, LIVER, S-9, AROCLOR 1254, Method: STANDARD PLATE): inactive; negative
- mutagenic call [1]: inactive; negative
- mutagenic call [4]: inactive; negative
- mutagenic call (Test System: AMES SALMONELLA TYPHIMURIUM, Strain/Indicator: TA100, Metabolic Activation: HAMSTER, LIVER, S-9, AROCLOR 1254, Method: STANDARD PLATE): inactive; negative
- mutagenic call [2]: inactive; negative
- mutagenic call (Test System: AMES SALMONELLA TYPHIMURIUM, Strain/Indicator: TA100, Metabolic Activation: RAT, LIVER, S-9, AROCLOR 1254, Method: STANDARD PLATE): inactive; negative
- mutagenic call [5]: inactive; negative
- mutagenic call [6]: inactive; negative
- mutagenic call (Test System: AMES SALMONELLA TYPHIMURIUM, Strain/Indicator: TA1535, Metabolic Activation: RAT, LIVER, S-9, AROCLOR 1254, Method: STANDARD PLATE): inactive; negative
- mutagenic call (Test System: AMES SALMONELLA TYPHIMURIUM, Strain/Indicator: TA1537, Metabolic Activation: HAMSTER, LIVER, S-9, AROCLOR 1254, Method: STANDARD PLATE): inactive; negative
- mutagenic call [7]: inactive; negative
- mutagenic call (Test System: AMES SALMONELLA TYPHIMURIUM, Strain/Indicator: TA1537, Metabolic Activation: RAT, LIVER, S-9, AROCLOR 1254, Method: STANDARD PLATE): inactive; negative
- mutagenic call (Test System: AMES SALMONELLA TYPHIMURIUM, Strain/Indicator: TA1538, Metabolic Activation: HAMSTER, LIVER, S-9, AROCLOR 1254, Method: STANDARD PLATE): inactive; negative
- mutagenic call [8]: inactive; negative
- mutagenic call (Test System: AMES SALMONELLA TYPHIMURIUM, Strain/Indicator: TA1538, Metabolic Activation: RAT, LIVER, S-9, AROCLOR 1254, Method: STANDARD PLATE): inactive; negative
- mutagenic call (Test System: MOUSE LYMPHOMA, Strain/Indicator: L5178Y (TK+/TK-), Metabolic Activation: NONE, Method: SUSPENSION/PLATE): inactive; negative. reevaluation of results: negative
- mutagenic call (Test System: MOUSE LYMPHOMA, Strain/Indicator: L5178Y (TK+/TK-), Metabolic Activation: RAT, LIVER, S-9, AROCLOR 1254, Method: SUSPENSION/PLATE): active; positive. reevaluation of results: positive

SMILES: C#CCOCCn1cc[n+](C)c1/C=N/O
- mutagenic call (Test System: AMES SALMONELLA TYPHIMURIUM, Strain/Indicator: TA97, Metabolic Activation: NONE, Method: STANDARD PLATE): inactive; negative
- mutagenic call (Test System: AMES SALMONELLA TYPHIMURIUM, Strain/Indicator: TA97, Metabolic Activation: S-9, Method: STANDARD PLATE): inactive; negative
- mutagenic call [2]: inactive; negative
- mutagenic call [3]: inactive; negative
- mutagenic call (Test System: AMES SALMONELLA TYPHIMURIUM, Strain/Indicator: TA104, Metabolic Activation: NONE, Method: STANDARD PLATE): inactive; negative
- mutagenic call (Test System: AMES SALMONELLA TYPHIMURIUM, Strain/Indicator: TA104, Metabolic Activation: S-9, Method: STANDARD PLATE): inactive; negative
- mutagenic call [7]: inactive; negative
- mutagenic call (Test System: AMES SALMONELLA TYPHIMURIUM, Strain/Indicator: TA1537, Metabolic Activation: S-9, Method: STANDARD PLATE): inactive; negative
- mutagenic call [8]: inactive; negative
- mutagenic call (Test System: AMES SALMONELLA TYPHIMURIUM, Strain/Indicator: TA1538, Metabolic Activation: S-9, Method: STANDARD PLATE): inactive; negative

SMILES: CC(C)CCCC(C)CCCC(C)CCCCC(C)CCCC(C)CCCC(C)C (stereo not given)
- mutagenic call (Test System: Ames Salmonella typhimurium, Strain/Indicator: TA98, Metabolic Activation: None, Method: Preincubation): inactive; negative
- mutagenic call (Test System: Ames Salmonella typhimurium, Strain/Indicator: TA98, Metabolic Activation: Rat, Liver, S9, Phenobarbital and 5,6-benzoflavone, Method: Preincubation): inactive; negative
- mutagenic call (Test System: Ames Salmonella typhimurium, Strain/Indicator: TA100, Metabolic Activation: None, Method: Preincubation): inactive; negative
- mutagenic call (Test System: Ames Salmonella typhimurium, Strain/Indicator: TA100, Metabolic Activation: Rat, Liver, S9, Phenobarbital and 5,6-benzoflavone, Method: Preincubation): inactive; negative
- mutagenic call (Test System: Ames Salmonella typhimurium, Strain/Indicator: TA1535, Metabolic Activation: None, Method: Preincubation): inactive; negative
- mutagenic call (Test System: Ames Salmonella typhimurium, Strain/Indicator: TA1535, Metabolic Activation: Rat, Liver, S9, Phenobarbital and 5,6-benzoflavone, Method: Preincubation): inactive; negative
- mutagenic call (Test System: Ames Salmonella typhimurium, Strain/Indicator: TA1537, Metabolic Activation: None, Method: Preincubation): inactive; negative
- mutagenic call (Test System: Ames Salmonella typhimurium, Strain/Indicator: TA1537, Metabolic Activation: Rat, Liver, S9, Phenobarbital and 5,6-benzoflavone, Method: Preincubation): inactive; negative
- mutagenic call (Test System: E. coli, Strain/Indicator: WP2uvrA/pKM101, Metabolic Activation: None, Method: Preincubation): inactive; negative
- mutagenic call (Test System: E. coli, Strain/Indicator: WP2uvrA/pKM101, Metabolic Activation: Rat, Liver, S9, Phenobarbital and 5,6-benzoflavone, Method: Preincubation): inactive; negative

SMILES: O=[N+]([O-])OCC(CO[N+](=O)[O-])O[N+](=O)[O-]
- mutagenic call (Test System: AMES SALMONELLA TYPHIMURIUM, Strain/Indicator: TA100(NR), Metabolic Activation: NONE, Method: STANDARD PLATE): inactive; negative
- mutagenic call [2]: inactive; negative
- mutagenic call (Test System: AMES SALMONELLA TYPHIMURIUM, Strain/Indicator: TA102, Metabolic Activation: HAMSTER, LIVER, S-9, AROCLOR 1254, Method: STANDARD PLATE): inactive; negative
- mutagenic call (Test System: AMES SALMONELLA TYPHIMURIUM, Strain/Indicator: TA102, Metabolic Activation: NONE, Method: STANDARD PLATE): inactive; negative
- mutagenic call [5]: active; positive
- mutagenic call [6]: active; positive
- mutagenic call [8]: inactive; negative
- mutagenic call (Test System: AMES SALMONELLA TYPHIMURIUM, Strain/Indicator: TA1975, Metabolic Activation: NONE, Method: STANDARD PLATE): inactive; negative
- mutagenic call (Test System: AMES SALMONELLA TYPHIMURIUM, Strain/Indicator: YG1026, Metabolic Activation: NONE, Method: STANDARD PLATE): inactive; negative

SMILES: CC(=O)O[C@H]1[C@H](OC23C=C(C)C4(CC4)C(C)(O)C2C(=O)C(C)(C)C3)O[C@H](CO)[C@@H](OC(=O)/C=C\c2ccc(O)cc2)[C@@H]1O (stereo not given in full)
- mutagenic call (Test System: AMES SALMONELLA TYPHIMURIUM, Strain/Indicator: TA98, Metabolic Activation: NONE, Method: PREINCUBATION): active; positive
- mutagenic call (Test System: AMES SALMONELLA TYPHIMURIUM, Strain/Indicator: TA100, Metabolic Activation: NONE, Method: PREINCUBATION): active; positive

SMILES: NC(CO)C(=O)O (stereo not given)
- mutagenic call (Test System: AMES SALMONELLA TYPHIMURIUM, Strain/Indicator: TA98, Metabolic Activation: RAT LIVER S-9, CHLOROPHENE, Method: STANDARD PLATE (COMPOUND HEATED AT 250 DEGREES CELSIUS FOR 20 MIN)): inactive; negative

SMILES: Cc1ccc(N(SC(F)(Cl)Cl)S(=O)(=O)N(C)C)cc1
- mutagenic call (End Point: In vivo chromosomal aberrations, Test System: Peripheral blood lymphocytes, Species: Sheep, Strain/Sex: Merino/female, Route: Intrarumen): active; positive (structural changes)
- mutagenic call (End Point: In vivo micronucleus, Test System: Peripheral blood lymphocytes, Species: Sheep, Strain/Sex: Merino/female, Route: Intrarumen): active; positive

SMILES: CCC1(C(C)O)OC1(C(N)=O)C(=O)OC (stereo not given)
- mutagenic call (Test System: AMES SALMONELLA TYPHIMURIUM, Strain/Indicator: TA98, Metabolic Activation: NONE, Method: DISK ASSAY): inactive; negative
- mutagenic call [1]: inactive; negative
- mutagenic call (Test System: AMES SALMONELLA TYPHIMURIUM, Strain/Indicator: TA98, Metabolic Activation: RAT, LIVER, S-9, AROCLOR 1254, Method: DISK ASSAY): inactive; negative
- mutagenic call [4]: inactive; negative
